Data reported in patent publication US20260232767A1, “INTERLEUKIN-23 RECEPTOR ANTAGONIST PEPTIDES FOR USE IN THE TREATMENT OF PSORIASIS” (Janssen Pharmaceutica NV, priority 2023, published 2026).

Test system: subjects with moderate-to-severe plaque psoriasis
Assay: PASI response, Example 1 16-week dose-ranging study
Format: in vivo, human
Settings: Week 16; for PASI 100% Improvement, n subjects / PASI ≥75% Improvement, n subjects / PASI ≥90% Improvement, n subjects / PASI ≥75% Improvement, % subjects / PASI ≥90% Improvement, % subjects: N=2
Method: The Psoriasis Area and Severity Index (PASI) is a system used for assessing and grading the severity of psoriatic lesions and their response to therapy. In the PASI system, the body is divided into four regions: the head, trunk, upper extremities, and lower extremities. Each of these areas is assessed and scored separately for erythema, induration, and scaling, which are each rated on a scale of 0 to 4 and extent of involvement on a scale of 0 to 6. The PASI produces a numeric score (a “PASI score”) that can range from 0 to 72. A higher score indicates more severe disease.
This was a randomized, double-blind, placebo-controlled, dose-ranging, parallel group, multicenter, interventional study in subjects with moderate-to-severe plaque psoriasis. A target of 240 subjects were enrolled in this study with 40 subjects planned per intervention group.
Clinician-reported outcomes including Psoriasis Area and Severity Index (PASI), Body Surface Area (BSA), Investigator's Global Assessment (IGA), Nail Psoriasis Area and Severity Index (NAPSI), Fingernail Physician's Global Assessment (f-PGA), Static Physician's Global Assessment of Genitalia (s-PGA-G), Physician's Global Assessment of Hands and/or Feet (hf-PGA), and Scalp Specific Investigator Global Assessment (ss-IGA) were obtained at Week 0, 8, and 16. PASI and IGA were also obtained at Weeks 1, 2, 4, and 12, and at Week 20, four weeks after the administration of the tablets has stopped.
The primary efficacy endpoint was the proportion of participants achieving a PASI 75 response at Week 16, defined as at least a 75% reduction from baseline in PASI total score.
For the primary analysis, composite strategy (non-responder imputation) was applied to address intercurrent event #1 (Discontinuation of study intervention due to lack of efficacy or due to an AE of worsening of psoriasis) and #2 (initiation of a protocol-prohibited medication or therapy that could improve psoriasis); and treatment policy strategy (observed data) was applied to intercurrent event #3 (Discontinuation of study intervention due to other reasons). Participants with missing data after application of ICEs are also considered as non-responders.
In addition to the response analysis, pairwise comparisons of each treatment group versus the placebo group were performed for the primary endpoint of PASI 75 at Week 16. Pairwise comparisons were not adjusted for multiplicity. The Cochran-Mantel-Haenszel chi-square statistic stratified by baseline weight category (≤90 kg, >90 kg) at a 2-sided significance level of 0.05 was used (Table 2).

[1] = 25 mg BID, peak plasma conc. <Q1
[2] = 25 mg BID, peak plasma conc. Q1 to <Q2
[3] = 25 mg BID, peak plasma conc. Q2 to <Q3
[4] = 25 mg BID, peak plasma conc. ≥Q3
[5] = 25 mg BID, trough plasma conc <Q1
[6] = 25 mg BID, trough plasma conc Q1 to <Q2
[7] = 25 mg BID, trough plasma conc Q2 to <Q3
[8] = 25 mg BID, trough plasma conc ≥Q3
[9] = 25 mg QD, peak plasma conc. <Q1
[10] = 25 mg QD, peak plasma conc. Q1 to <Q2
[11] = 25 mg QD, peak plasma conc. Q2 to <Q3
[12] = 25 mg QD, peak plasma conc. ≥Q3
[13] = 25 mg QD, trough plasma conc <Q1
[14] = 25 mg QD, trough plasma conc Q1 to <Q2
[15] = 25 mg QD, trough plasma conc Q2 to <Q3

CC(=O)NCCCC[C@@H]1NC(=O)[C@H](Cc2c[nH]c3c(C)cccc23)NC(=O)[C@H]([C@@H](C)O)NC(=O)[C@H](CC(N)=O)NC(=O)[C@@H](NC(C)=O)C(C)(C)SSC(C)(C)[C@@H](C(=O)N[C@@H](Cc2ccc(OCCN)cc2)C(=O)N[C@@H](Cc2ccc3ccccc3c2)C(=O)NC2(C(=O)N[C@@H](CCC(=O)O)C(=O)N[C@@H](CC(N)=O)C(=O)N[C@@H](Cc3cccnc3)C(=O)N(C)CC(N)=O)CCOCC2)NC1=O [IL-23 receptor antagonist peptide, Ac-[Pen]*-N-T-[W(7-Me)]-[Lys(Ac)]-[Pen]*-Phe[4-(2-aminoethoxy)]-[2-Nal]-[THP]-E-N-[3-Pal]-Sarc-NH2 (*[Pen]-[Pen]* formdisulfidebond)]
PASI 75 treatment difference vs placebo (25 mg BID): 41.9%
PASI 90 treatment difference vs placebo (25 mg BID): 24.5% (10.4%,
PASI 100 treatment difference vs placebo (25 mg BID): 9.7% (0.7%,
Subjects achieving PASI 75 (25 mg BID): 51.2%
Subjects achieving PASI 90 (25 mg BID): (26.8%)
Subjects achieving PASI 100 (25 mg BID): (9.8%)
PASI 75, % (25 mg BID, N=41): (51.2) %
PASI 90, % (25 mg BID, N=41): (26.8) %
PASI 100, % (25 mg BID, N=41): (9.8) %
PASI 100% Improvement, n subjects [1]: 0
PASI ≥75% Improvement, n subjects [1]: 0
PASI ≥90% Improvement, n subjects [1]: 0
PASI 100% Improvement, n subjects [2]: 0
PASI ≥75% Improvement, % subjects [2]: (100.0%)
PASI ≥75% Improvement, n subjects [2]: 2
PASI ≥90% Improvement, n subjects [2]: 0
PASI 100% Improvement, n subjects [3]: 0
PASI ≥75% Improvement, % subjects [3]: (50.0%)
PASI ≥75% Improvement, n subjects [3]: 1
PASI ≥90% Improvement, % subjects [3]: (50.0%)
PASI ≥90% Improvement, n subjects [3]: 1
PASI 100% Improvement, n subjects [4]: 0
PASI ≥75% Improvement, % subjects [4]: (50.0%)
PASI ≥75% Improvement, n subjects [4]: 1
PASI ≥90% Improvement, % subjects [4]: (50.0%)
PASI ≥90% Improvement, n subjects [4]: 1
PASI 100% Improvement, subjects [5]: 1 (16.7%)
PASI ≥75% Improvement, subjects [5]: 3 (50.0%)
PASI ≥90% Improvement, subjects [5]: 2 (33.3%)
PASI 100% Improvement, subjects [6]: 1 (16.7%)
PASI ≥75% Improvement, subjects [6]: 1 (16.7%)
PASI ≥90% Improvement, subjects [6]: 1 (16.7%)
PASI 100% Improvement, subjects [7]: 0
PASI ≥75% Improvement, subjects [7]: 3 (50.0%)
PASI ≥90% Improvement, subjects [7]: 2 (33.3%)
PASI 100% Improvement, subjects [8]: 2 (33.3%)
PASI ≥75% Improvement, subjects [8]: 100.0%
PASI ≥90% Improvement, subjects [8]: 3 (50.0%)
PASI 75 treatment difference vs placebo (25 mg QD): 27.9%
PASI 90 treatment difference vs placebo (25 mg QD): 23.3% (9.6%,
PASI 100 treatment difference vs placebo (25 mg QD): 11.6% (2.4%,
Subjects achieving PASI 90 (25 mg QD): (25.6%)
Subjects achieving PASI 100 (25 mg QD): (11.6%)
PASI 75, % (25 mg QD, N=43): (37.2) %
PASI 90, % (25 mg QD, N=43): (25.6) %
PASI 100, % (25 mg QD, N=43): (11.6) %
PASI 100% Improvement, n subjects [9]: 0
PASI ≥75% Improvement, % subjects [9]: (50.0%)
PASI ≥75% Improvement, n subjects [9]: 1
PASI ≥90% Improvement, % subjects [9]: (50.0%)
PASI ≥90% Improvement, n subjects [9]: 1
PASI 100% Improvement, n subjects [10]: 0
PASI ≥75% Improvement, % subjects [10]: (50.0%)
PASI ≥75% Improvement, n subjects [10]: 1
PASI ≥90% Improvement, % subjects [10]: (50.0%)
PASI ≥90% Improvement, n subjects [10]: 1
PASI 100% Improvement, n subjects [11]: 0
PASI ≥75% Improvement, % subjects [11]: (50.0%)
PASI ≥75% Improvement, n subjects [11]: 1
PASI ≥90% Improvement, % subjects [11]: (50.0%)
PASI ≥90% Improvement, n subjects [11]: 1
PASI 100% Improvement, n subjects [12]: 0
PASI ≥75% Improvement, % subjects [12]: (50.0%)
PASI ≥75% Improvement, n subjects [12]: 1
PASI ≥90% Improvement, % subjects [12]: (50.0%)
PASI ≥90% Improvement, n subjects [12]: 1
PASI 100% Improvement, subjects [13]: 1 (20.0%)
PASI ≥75% Improvement, subjects [13]: 2 (40.0%)
PASI ≥90% Improvement, subjects [13]: 2 (40.0%)
PASI 100% Improvement, subjects [14]: 1 (16.7%)
PASI ≥75% Improvement, subjects [14]: 2 (33.3%)
PASI ≥90% Improvement, subjects [14]: 2 (33.3%)
PASI 100% Improvement, subjects [15]: 0)
PASI ≥75% Improvement, subjects [15]: 2 (40.0%)
PASI ≥90% Improvement, subjects [15]: 0
